In patent publication US8389555B2, “Medicaments” (Motac Neuroscience Limited, priority 2007, dated 2013):

Experiments:
[1] = molecular target: T1, human dopamine D3 receptors (Homo sapiens, UniProt P35462); assay: Dopamine D3 receptor binding assay ([3H]spiperone, CHO cell membranes); conditions: for Ki: human D3 receptors in CHO cells, 0.2 nM [3H]spiperone, mean ± SEM, read-out: Affinity Ki (D3); for Selectivity Ki(D2)/Ki(D3): ratio of Ki(D2) to Ki(D3)
T1 construct: expressed in transfected cells
T1 sequence (P35462 whole entry): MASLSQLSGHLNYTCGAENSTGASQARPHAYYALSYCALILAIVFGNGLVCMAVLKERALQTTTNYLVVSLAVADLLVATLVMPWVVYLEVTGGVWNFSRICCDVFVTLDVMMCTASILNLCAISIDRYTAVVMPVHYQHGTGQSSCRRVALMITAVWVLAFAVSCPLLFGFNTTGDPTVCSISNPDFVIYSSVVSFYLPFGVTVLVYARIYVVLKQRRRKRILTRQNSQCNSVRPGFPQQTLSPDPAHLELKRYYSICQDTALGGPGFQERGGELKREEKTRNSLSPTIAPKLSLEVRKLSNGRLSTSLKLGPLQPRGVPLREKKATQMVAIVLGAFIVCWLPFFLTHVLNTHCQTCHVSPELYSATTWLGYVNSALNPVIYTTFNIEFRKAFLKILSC
Protocol: (§1) Compounds synthesized in Examples A, B, C and D were assayed to test their affinity for dopamine D3 and D2 receptors.
(§2) METHODS: Dopamine D2S and D3 Receptor Binding Assays
Human D3 receptors stably expressed in CHO cells were used as described by Sokoloff et al. (Sokoloff, P. et al., Eur. J. Pharmacol. 1992, 225, 331-337). The cell line was cultured in Dulbecco's modified Eagle's medium supplemented with 2 mM glutamine, and 10% dialyzed fetal bovine serum, and were grown in an atmosphere of 5% CO2 at 37° C. (Gibco™).
(§3) Human D2S- and D3 receptors expressing cell lines were grown to confluence. The medium was removed, and the cells were washed with 10 ml PBS buffer (140 mM NaCl, 3 mM KCl, 1.5 mM KH2PO4, 8 mM Na2HPO4, pH 7.4) at 4° C. After removing the wash buffer, the cells were scraped from the flasks into 15 ml of ice-cold media, and centrifuged at 3,000 rpm for 10 minutes at 4° C. After centrifugation the medium was removed and the […] resuspended in ice-cold Tris-HCl buffer containing 5 mM MgCl2, pH 7.4 and disrupted with a Polytron and centrifuged at 20,000 rpm, for 30 minutes at 4° C. The pellet was resuspended by sonication in ice-cold Tris-HCl buffer (containing 5 mM MgCl2, pH 7.4), membrane aliquots were stored at −70° C. Determination of membrane protein was carried out by the method of Bradford (Bradford, M. M. Anal Biochem 1976, 72, 248-54).
(§4) Cell membranes containing human D2S and D3 receptors from CHO cells were thawed, rehomogenized with sonication at 4° C. in Tris-HCl, pH 7.4 containing 120 mM NaCl, 5 mM KCl, 2 mM CaCl2 and 1 mM MgCl2 (incubation buffer), and incubated with 0.2 nM [^3H]spiperone (106 Ci·mmol^−1, Amersham Biosciences, Freiburg, Germany), and drug diluted in incubation buffer. Non-specific binding was determined in the presence of 10 μM BP 897 ((Wermuth, C. G. et al. in Chem. Abstr. (Eur. Pat. 0779284, 1997)). Incubations were run at 25° C. for 120 min, and terminated by rapid filtration through PerkinElmer GF/B glass fibre filters (PerkinElmer Life Sciences, Rodgau, Germany) coated in 0.3% polyethylenimine (Sigma-Aldrich, Taufkirchen, Germany) using an Inotech cell harvester (Inotech AG, Dottikon, Switzerland). Unbound radioligand was removed with four washes of 1 ml of ice-cold 50 mM Tris-HCl buffer, pH 7.4, containing 120 mM NaCl. The filters were soaked in 9 ml Beta plate scint scintillator and counted using a PerkinElmer MicroBeta®Trilux scintillation counter (PerkinElmer Life Sciences). Competition binding data were analyzed by the software GraphPad Prism™ (2000, version 3.02, San Diego, Calif., USA), using non-linear least squares fit. For detailed screening the compounds have been tested at seven concentrations in triplicate carrying out three to five separate binding experiments for human dopamine D2S and for human dopamine D3 receptors and expressed as mean±standard error of the mean (SEM). Ki values were calculated from the IC50 values according to Cheng-Prusoff equation (Cheng, Y. C., Prusoff, W. H. Biochem. Pharmacol. 1973, 22, 3099-3108.).

[2] = molecular target: T2, recombinant human D2(short) dopamine receptor (Homo sapiens, UniProt P14416); assay: Dopamine D2S receptor binding assay ([3H]spiperone, CHO cell membranes); conditions: human D2S receptors in CHO cells, 0.2 nM [3H]spiperone, mean ± SEM; read-out: Affinity Ki (D2)
T2 construct: expressed in transfected cells; host or cells: CHO-D2S cells (per Hayes et al. 1992)
T2 sequence (P14416 1-414 isoform P14416-2): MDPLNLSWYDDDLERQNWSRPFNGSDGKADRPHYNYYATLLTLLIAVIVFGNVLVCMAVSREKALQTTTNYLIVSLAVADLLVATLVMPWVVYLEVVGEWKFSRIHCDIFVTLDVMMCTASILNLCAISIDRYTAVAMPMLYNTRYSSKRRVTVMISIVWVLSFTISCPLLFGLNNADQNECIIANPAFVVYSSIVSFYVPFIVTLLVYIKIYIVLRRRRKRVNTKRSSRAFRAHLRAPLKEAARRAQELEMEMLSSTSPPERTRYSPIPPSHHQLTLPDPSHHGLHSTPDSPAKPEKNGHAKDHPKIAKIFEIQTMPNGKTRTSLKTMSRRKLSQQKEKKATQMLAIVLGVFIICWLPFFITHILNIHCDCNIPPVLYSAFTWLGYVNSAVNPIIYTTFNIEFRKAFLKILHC
Protocol: as §1, §2
CHO-D2S cells, expressing the recombinant human D2(short) dopamine receptor gene, (Hayes, G. et al., J. Mol. Endocrinol. 1992, 6, 920-926) were grown in Dulbecco's modified Eagle's medium/nutrient mixture F12 1:1 mixture supplemented with 2 mM glutamine, 10% fetal bovine serum, and 10 μl·ml^−1 penicillin/streptomycin in an atmosphere of 5% CO2 at 37° C. (Gibco™, Karlsruhe, Germany).
as §3, §4

CCCN(CCCCNC(=O)c1ccccc1)C1CCc2ncsc2C1 (stereo not drawn) [Compound 1, N-{4-[Propyl-(4,5,6,7-tetrahydro-benzothiazol-6-yl)-amino]-butyl}-benzamide]
Ki [1]: 2.26 ± 0.79 nM | Selectivity Ki(D2)/Ki(D3) [1]: 746 | Ki [2]: 1680 ± 382 nM

O=C(NCCCCNC1CCc2ncsc2C1)c1ccc2ccccc2c1 (stereo not drawn) [Compound 2, Naphthalene-2-carboxylic acid [4-(4,5,6,7-tetrahydro-benzothiazol-6-ylamino)-butyl]-amide]
Ki [1]: 147 ± 30 nM | Selectivity Ki(D2)/Ki(D3) [1]: 143 | Ki [2]: 21000 ± 2550 nM

CN(CCCCNC(=O)c1ccc2ccccc2c1)C1CCc2ncsc2C1 (stereo not drawn) [Compound 3, Naphthalene-2-carboxylic acid {4-[methyl-(4,5,6,7-tetrahydro-benzothiazol-6-yl)-amino]-butyl}-amide]
Ki [1]: 25.4 ± 9.6 nM | Selectivity Ki(D2)/Ki(D3) [1]: 151 | Ki [2]: 3820 ± 1100 nM

CCN(CCCCNC(=O)c1ccc2ccccc2c1)C1CCc2ncsc2C1 (stereo not drawn) [Compound 4, Naphthalene-2-carboxylic acid {4-[ethyl-(4,5,6,7-tetrahydro-benzothiazol-6-yl)-amino]-butyl}-amide]
Ki [1]: 2.7 ± 0.94 nM | Selectivity Ki(D2)/Ki(D3) [1]: 581 | Ki [2]: 1570 ± 303 nM

CCCN(CCCCNC(=O)c1ccc2ccccc2c1)C1CCc2ncsc2C1 (stereo not drawn) [Compound 5, Naphthalene-2-carboxylic acid {4-[propyl-(4,5,6,7-tetrahydro-benzothiazol-6-yl)-amino]-butyl}-amide]
Ki [1]: 1.16 ± 0.17 nM | Selectivity Ki(D2)/Ki(D3) [1]: 751 | Ki [2]: 873 ± 388 nM

C=CCN(CCCCNC(=O)c1ccc2ccccc2c1)C1CCc2ncsc2C1 (stereo not drawn) [Compound 6, Naphthalene-2-carboxylic acid {4-[allyl-(4,5,6,7-tetrahydro-benzothiazol-6-yl)-amino]-butyl}-amide]
Ki [1]: 0.95 ± 0.2 nM | Selectivity Ki(D2)/Ki(D3) [1]: 486 | Ki [2]: 459 ± 83 nM

C#CCN(CCCCNC(=O)c1ccc2ccccc2c1)C1CCc2ncsc2C1 (stereo not drawn) [Compound 7, Naphthalene-2-carboxylic acid {4-[prop-2-ynyl-(4,5,6,7-tetrahydro-benzothiazol-6-yl)-amino]-butyl}-amide]
Ki [1]: 7.76 ± 1.37 nM | Selectivity Ki(D2)/Ki(D3) [1]: 1170 | Ki [2]: 9080 ± 684 nM

CC#CCN(CCCCNC(=O)c1ccc2ccccc2c1)C1CCc2ncsc2C1 (stereo not drawn) [Compound 8, Naphthalene-2-carboxylic acid {4-[but-2-ynyl-(4,5,6,7-tetrahydro-benzothiazol-6-yl)-amino]-butyl}-amide]
Ki [1]: 108 ± 40 nM | Selectivity Ki(D2)/Ki(D3) [1]: 77 | Ki [2]: 8370 ± 3820 nM

O=C(NCCCCNC1CCc2ncsc2C1)c1cc2ccccc2s1 (stereo not drawn) [Compound 10, Benzo[b]thiophene-2-carboxylic acid [4-(4,5,6,7-tetrahydro-benzothiazol-6-ylamino)-butyl]-amide]
Ki [1]: 292 ± 41 nM | Selectivity Ki(D2)/Ki(D3) [1]: 80 | Ki [2]: 23400 ± 1220 nM

CN(CCCCNC(=O)c1cc2ccccc2s1)C1CCc2ncsc2C1 (stereo not drawn) [Compound 11, Benzo[b]thiophene-2-carboxylic acid {4-[methyl-(4,5,6,7-tetrahydro-benzothiazol-6-yl)-amino]-butyl}-amide]
Ki [1]: 52.6 ± 5.1 nM | Selectivity Ki(D2)/Ki(D3) [1]: 65 | Ki [2]: 3390 ± 388 nM

CCN(CCCCNC(=O)c1cc2ccccc2s1)C1CCc2ncsc2C1 (stereo not drawn) [Compound 12, Benzo[b]thiophene-2-carboxylic acid {4-[ethyl-(4,5,6,7-tetrahydro-benzothiazol-6-yl)-amino]-butyl}-amide]
Ki [1]: 2.92 ± 0.48 nM | Selectivity Ki(D2)/Ki(D3) [1]: 856 | Ki [2]: 2500 ± 463 nM

CCCN(CCCCNC(=O)c1cc2ccccc2s1)C1CCc2ncsc2C1 (stereo not drawn) [Compound 13, Benzo[b]thiophene-2-carboxylic acid {4-[propyl-(4,5,6,7-tetrahydro-benzothiazol-6-yl)-amino]-butyl}-amide]
Ki [1]: 16 ± 6 nM | Selectivity Ki(D2)/Ki(D3) [1]: 141 | Ki [2]: 2280 ± 105 nM

CCN(CCCCNC(=O)c1ccc2ncsc2c1)C1CCc2ncsc2C1 (stereo not drawn) [Compound 14, Benzothiazole-6-carboxylic acid {4-[ethyl-(4,5,6,7-tetrahydro-benzothiazol-6-yl)-amino]-butyl}-amide]
Ki [1]: 5.61 ± 0.3 nM | Selectivity Ki(D2)/Ki(D3) [1]: 375 | Ki [2]: 2100 ± 327 nM

CCCN(CCCCNC(=O)c1ccc2ncsc2c1)C1CCc2ncsc2C1 (stereo not drawn) [Compound 15]
Ki [1]: 0.65 ± 0.09 nM | Selectivity Ki(D2)/Ki(D3) [1]: 531 | Ki [2]: 347 ± 133 nM

CCCN(CCCCNC(=O)C=Cc1ccccc1)C1CCc2ncsc2C1 (stereo not drawn) [Compound 16, N-{4-[Propyl-(4,5,6,7-tetrahydro-benzothiazol-6-yl)-amino]-butyl}-cinnamoylamide]
Ki [1]: 8.11 ± 1.23 nM | Selectivity Ki(D2)/Ki(D3) [1]: 495 | Ki [2]: 4010 ± 383 nM

CCCN(CCCCNC(=O)C=Cc1ccc(Cl)cc1Cl)C1CCc2ncsc2C1 (stereo not drawn) [Compound 17, 2,4-Dichloro-N-{4-[propyl-(4,5,6,7-tetrahydro-benzothiazol-6-yl)-amino]-butyl}-cinnamoylamide]
Ki [1]: 2.41 ± 1 nM | Selectivity Ki(D2)/Ki(D3) [1]: 184 | Ki [2]: 445 ± 55 nM

CCCN(CCCCNC(=O)C=Cc1ccc(F)cc1)C1CCc2ncsc2C1 (stereo not drawn) [Compound 18, 4-Fluoro-N-{4-[propyl-(4,5,6,7-tetrahydro-benzothiazol-6-yl)-amino]-butyl}-cinnamoylamide]
Ki [1]: 0.57 ± 0.04 nM | Selectivity Ki(D2)/Ki(D3) [1]: 1479 | Ki [2]: 842 ± 35 nM

CCCN(CCCCNC(=O)c1cnc(-c2ccc(Cl)cc2)s1)C1CCc2ncsc2C1 (stereo not drawn) [Compound 19, 2-(4-Chloro-phenyl)-thiazole-5-carboxylic acid {4-[propyl-(4,5,6,7-tetrahydro-benzothiazol-6-yl)-amino]-butyl}-amide]
Ki [1]: 83 ± 2 nM | Selectivity Ki(D2)/Ki(D3) [1]: 30 | Ki [2]: 2520 ± 144 nM

CCCN(CCCCNC(=O)C1CCCCC1)C1CCc2ncsc2C1 (stereo not drawn) [Compound 20, Cyclohexanecarboxylic acid {4-[propyl-(4,5,6,7-tetrahydro-benzothiazol-6-yl)-amino]-butyl}-amide]
Ki [1]: 2.62 ± 0.16 nM | Selectivity Ki(D2)/Ki(D3) [1]: 582 | Ki [2]: 1530 ± 297 nM

CCCN(CCCCNC(=O)N1CCCCC1)C1CCc2ncsc2C1 (stereo not drawn) [Compound 21, Piperidine-1-carboxylic acid {4-[propyl-(4,5,6,7-tetrahydro-benzothiazol-6-yl)-amino]-butyl}-amide]
Ki [1]: 6.46 ± 3.25 nM | Selectivity Ki(D2)/Ki(D3) [1]: 1152 | Ki [2]: 7440 ± 2290 nM

CCCN(CCCCNC(=O)NC1CCCCC1)C1CCc2ncsc2C1 (stereo not drawn) [Compound 22, 1-Cyclohexyl-3-{4-[propyl-(4,5,6,7-tetrahydro-benzothiazol-6-yl)-amino]-butyl}-urea]
Ki [1]: 2.97 ± 1.23 nM | Selectivity Ki(D2)/Ki(D3) [1]: 1642 | Ki [2]: 4870 ± 1050 nM

CCCN(CCCCNC(=O)C1CCc2ccccc2C1)C1CCc2ncsc2C1 (stereo not drawn) [Compound 23, 1,2,3,4-Tetrahydro-naphthalene-2-carboxylic acid {4-[propyl-(4,5,6,7-tetrahydro-benzothiazol-6-yl)-amino]-butyl}-amide]
Ki [1]: 1.72 ± 0.22 nM | Selectivity Ki(D2)/Ki(D3) [1]: 1262 | Ki [2]: 2170 ± 566 nM

CCCN(CCCCNC(=O)C1Cc2ccccc2C1)C1CCc2ncsc2C1 (stereo not drawn) [Compound 26, Indane-2-carboxylic acid-{4-[propyl-(4,5,6,7-tetrahydrobenzothiazol-6-yl)amino]butyl}amide]
Ki [1]: 1.52 ± 0.55 nM | Selectivity Ki(D2)/Ki(D3) [1]: 1189 | Ki [2]: 1810 ± 376 nM

CCCN(CCCCNC(=O)N1Cc2ccccc2C1)C1CCc2ncsc2C1 (stereo not drawn) [Compound 27, 1,3-Dihydro-isoindole-2-carboxylic acid {4-[propyl-(4,5,6,7-tetrahydro-benzothiazol-6-yl)-amino]-butyl}-amide]
Ki [1]: 2.25 ± 1.24 nM | Selectivity Ki(D2)/Ki(D3) [1]: 1422 | Ki [2]: 3190 ± 1470 nM
